pIC50: −log10 of the molar value.
Experiments:
H460 cells = assay: Cell viability dose-response assay (CellTiter-Glo), IC50 calculation; type: cell-based, human; conditions: H460; dose-response assay; read-out: Calculated IC50
PC9 cells = conditions: read-out: Calculated IC50, dose-response assay
H358 cells = assay: Cell viability dose-response assay (CellTiter-Glo), IC50 calculation; type: cell-based, human; conditions: H358; dose-response assay; read-out: Calculated IC50
[1] = test system: PC9, PC9 GR4 and H460 cells; assay: MitoSOX staining, mitochondrial ROS by FACS; type: cell-based, human; conditions: EGFR mutant PC9 and PC9 GR4 cells, IC50 doses, 24 hours
[2] = test system: lung cancer cells (PC9, PC9 GR4, PC9 BrM3, H460, H358); assay: 72 hr growth inhibition / cell viability assay with drug combinations and metabolite rescue; type: cell-based, human; conditions: PC9-BrM3, sub-therapeutic doses, 72 hrs
PC9 BrM3 cells = assay: Cell viability dose-response assay (CellTiter-Glo), IC50 calculation; type: cell-based, human; conditions: PC9 BrM3; dose-response assay; read-out: Calculated IC50
PC9 GR4 cells = assay: as above; type: cell-based, human; conditions: PC9 GR4; dose-response assay; read-out: Calculated IC50

O=C(NCCO)c1cccc(-c2cc(Nc3ccc(OC(F)(F)F)cc3)ncn2)c1 [GNF5]
pIC50 (H460 cells): 4.82 | pIC50 (PC9 cells): 5.00 | pIC50 (H358 cells): 4.82 | mitochondrial reactive oxygen species (MitoROS) levels [1]: increased | cell survival in the presence of statins [2]: decreased cell survival | pIC50 (PC9 BrM3 cells): 5.00 | pIC50 (PC9 GR4 cells): 5.00

From US20240058335A1, “METHODS FOR TREATMENT OF CANCER USING ABL INHIBITORS AND DRUGS TARGETING THE MEVALONATE PATHWAY” (Duke University, priority 2021, published 2024)
